Experimental data from patent US20100267803A1, “Regulators Of Fat Metabolism As Anti-Cancer Targets” (The Research Foundation of State University Of New York, priority 2008, published 2010).

How the values were obtained:
Format in all cases: cell-based, human
BT474 cells [1] = assay: RNAi screen, alamarBlue cell proliferation and viability; settings: shRNA transfection
Excerpt: (§1) FIG. 1 An RNAi screen targeting genes overexpressed in breast cancer. (a) Three transfection mixes were produced for each shRNA and each was transfected into triplicate wells of BT474 cells. AlamarBlue was used to monitor cell proliferation and viability. […] (b) The genetic and functional linkage of NR1D1 and PBP. Mb refers to map position on chromosome 17. (c) ERBB2-overexpressing (OEX) and ERBB2 non-overexpressing (non-OEX) breast cancer cell lines as well as the (non-OEX) HMEC and HEK 293 cells were transfected and assayed as in (a). […] Genes clustered with ERBB2 are boxed.
Amplification of the ERBB2 oncogene occurs in 10-34% of breast cancer cases and is correlated with aggressive disease and poor clinical outcome^1. […] However, its success has been tempered by response rates of only 30% when used as a single agent therapy in patients with metastatic ERBB2-positive breast cancer^2. A large number of genes co-overexpressed with ERBB2 in this tumour type have been proposed to contribute to the aggressiveness of this cancer^3-5. Applicants have performed an unbiased functional RNAi screen^8-10 to determine if any of these co-overexpressed genes are essential for ERBB2 positive breast cancer cell survival.
RNAi screen, transfections and constructs. The flag-RevErba (flag-NR1D1) overexpression construct was a generous gift of M. Lazar. The LSXN-neu* (ERBB2) overexpression construct was a generous gift of L. Petti. shRNA constructs were expressed from the pSHAG-MAGIC 2 (pSM2) vector and derived from a genome-wide shRNA library^31. ShRNAs targeting the firefly (Photinus pyralis) luciferase gene were used as controls. Transfection efficiency was monitored by co-transfection with a modified MSCV-Puro vector expressing green fluorescent protein (GFP). The alamarBlue (Biosource) assay was performed 96 h post-transfection, since BT474 cells have a population doubling time of ˜100 hours. For mature sequences of the shRNAs that produced the best results on decreasing BT474 viability, Table S1; a complete list is available in the RNAi Codex web page (http://codex.cshl.edu). The shRNAs targeting the luciferase gene were constructed as described in the RNAi Codex web page (http://codex.cshl.edu/scripts/newmain.pl) using a modified pSM2 vector containing the PheS gene (pSM2-PheS) in the cloning site, as a negative selection marker. The empty vector control (pSM2e) was constructed by XhoI and EcoRI (New England Biolabs) digestion of pSM2-PheS, followed by nucleotide filling of protruding ends by Klenow polymerase and blunt-end ligation. Transfections were performed using FuGENE 6 and HD FuGENE (Roche) according to the manufacturer's protocol. High-throughput transfections were performed using an EpMotion 5070 fluidics station (Eppendorf). For quantification of alamarBlue we used a BioTek HT Synergy plate reader. AlamarBlue values from the RNAi screens on other cell types were also calculated as above and subjected to hierarchical cluster analysis using Cluster 2.11 (M. Eisen Lab).

[2] = tested on: BT474, MDA-MB-361, MCF-7 and HMEC cells; assay: Cell counts after PPARγ antagonist treatment; settings: 10 and 20 μM for 72 hrs; % of vehicle
Procedure: FIG. 3 PPAR. inhibition impacts NR1D1 expression and ERBB2-positive cells viability. (a) Cell counts of BT474, MDA-MB-361, MCF-7 and HMEC cells treated with vehicle, 10 and 20 μM of the PPAR. antagonist GW9662 for 72 hrs. Results represented as % of control (vehicle). (Error bars are s.d from 3 individual experiments; *P>0.2, **P<0.05, ***P<0.002). (b) BT474 cells treated with vehicle or 20 μM of GW9662 for 48 h were immuno-stained for cleaved Caspase-3. (c) Quantification of Caspase-3 signal. (Error bars are s.d from 3 individual experiments; ***P=0.002). (d) aP2 and NR1D1 mRNA levels of BT474 cells treated with vehicle (control) and 20 μM of GW9662 for 48 h, analyzed by qRT-PCRs. (Error bars are s.d from 3 experiments; ***P<0.0006. (e) BMAL1-luc activity of BT474 cells treated with vehicle or 20 μM of GW9662 for 48 h. (Error bars are s.d from 3 individual experiments; **P=0.03). (f) Total ERBB2 western blot of BT474 cells treated with vehicle or 20 μM GW9662 for 72h. GAPDH was used as control.
(§2) Cell viability—apoptosis assays. […] At least 30 fields were imaged per single experiment. […] Immunoblotting. […] PCR reaction was run using standard conditions.

BT474 cells [3] = assay: Counts of GFP co-transfected BT474 cells (cell death / viability); settings: shRNA co-transfected with GFP, counted up to 72 h
Procedure: (§3) Results are shown as percentage of control. (**P=0.03). (c) BT474 cells were transfected with luciferase (control), PBP and NR1D1 shRNAs and co-transfected with GFP. Green cells were counted at intervals and expressed as percentage of control. (Error bars are s.d from 3 individual experiments; *P<0.08, **P<0.03, ***P<0.005). (d) BT474 cells were transfected with luciferase (control), PBP or NR shRNAs for 48 h. Immunofluorescence was performed for cleaved Caspase-3 signal; cell nuclei were stained with Hoechst 33243. (e) Cells from […] were counted for cleaved Caspase-3 signal. (Error bars are s.d from 3 individual experiments; ***P<0.0003). (f) BT474 cells were transfected with luciferase (control) PBP, NR1D1 or PBP and NR1D1 shRNAs together and co-transfected with GFP. Transfected cells were counted at 24 h and 72 h and the 72 h-to-24 h ratio for each shRNA was calculated and expressed as % of the control shRNA (luciferase). (Error bars are s.d from 3 individual experiments; **P=0.01, ***P<0.002). (g) Cells from (f) were counted for cleaved Caspase-3 signal. (Error bars are s.d from 3 individual experiments; ***P<0.0001). (h) ERBB2 mRNA levels of BT474 cells transfected with luciferase (control), PBP or NR1D1 shRNAs for 48 h, analyzed by qRT-PCRs. (Error bars are s.d from 3 individual experiments; ***P=0.0001).
FIG. 4 NR1D1 and PBP coordinate fatty acid metabolism in breast cancer cells. (a) BT474, MDA-MB-361, MCF-7 and HMEC cells were stained with Oil-Red O lipid and hematoxylin nuclear stains. (b) Fat stores were quantified by BODIPY 493/503 lipid probe staining (Error bars are s.d from 3 individual experiments). (c) FASN, ACLY, ACACA and FADS2 mRNA levels of BT474 cells treated with luciferase (control), PBP or NR1D1 shRNAs, or with vehicle and 20 μM of GW9662 for 48 h, analyzed by qRT-PCRs. (Error bars are s.d from 3 experiments; ***P<0.001, **P=0.005) (d) BT474 cells were transfected with FASN, ACLY and ACACA shRNAs and co-transfected with GFP. Transfected cells were counted at 24 h and 72 h and the 72h-to-24 h ratio for each shRNA was calculated and expressed as % of the control shRNA (luciferase). (Error bars are s.d from 3 individual experiments; **P<0.01, ***P<0.002). (e) BODIPY images and (f) quantification of BT474 cells transfected with luciferase (control), PBP or NR1D1 shRNAs and co-transfected with DsRed (Error bars are s.d from 3 individual experiments; ***P<0.03). Arrows indicate transfected cells.
FIG. 5. (a) MDH1 and ME1 mRNA levels of BT474 cells treated with luciferase (control), PBP or NR1D1 shRNAs for 48 h, analyzed by qRT-PCRs. (Error bars are s.d from 3 experiments; **P<0.002 (b) BT474 and MCF-7 cells were transfected with luciferase (control) MDH1 and ME1 shRNAs (Error bars are s.d from 3 individual experiments; ***P=0.0003). (c) BT474 cells) assayed for cleaved Caspase-3 signal by immunofluorescence 48 h after transfection; cell nuclei were stained with Hoechst 33243. (d) Quantification of cleaved Caspase-3 signal from cells in (c). (Error bars are s.d from 3 individual experiments; ***P<0.005). (e) Enzymes involved in fatty acid synthesis and storage that are regulated by NR1D1 and PBP and their proposed contribution to energy production necessary for survival of ERBB2-positive breast cancer cells.
as §2

BT474 cells [4] = assay: Apoptosis by cleaved Caspase-3 or activated Bax immunofluorescence; settings: 48 h of shRNA or 20 μM GW9662
Procedure: as §3
FIG. 3 PPAR. inhibition impacts NR1D1 expression and ERBB2-positive cells viability. (a) Cell counts of BT474, MDA-MB-361, MCF-7 and HMEC cells treated with vehicle, 10 and 20 μM of the PPAR. antagonist GW9662 for 72 hrs. Results represented as % of control (vehicle). (Error bars are s.d from 3 individual experiments; *P>0.2, **P<0.05, ***P<0.002). […] (c) Quantification of Caspase-3 signal. […] (d) aP2 and NR1D1 mRNA levels of BT474 cells treated with vehicle (control) and 20 μM of GW9662 for 48 h, analyzed by qRT-PCRs. […]
FIG. 5. (a) MDH1 and ME1 mRNA levels of BT474 cells treated with luciferase (control), PBP or NR1D1 shRNAs for 48 h, analyzed by qRT-PCRs. […] (d) Quantification of cleaved Caspase-3 signal from cells in (c). […]

[5] = tested on: ERBB2 overexpressing (BT474, MDA-MB-361) breast cancer cell lines; assay: alamarBlue proliferation of shRNA-transfected ERBB2-overexpressing cell lines; settings: shRNA transfection
Excerpt: as §1
(§4) To assess the specificity of effect of each shRNA on cell proliferation, those causing the greatest decrease in BT474 cell proliferation were transfected in a variety of cell lines, including ERBB2 overexpressing (BT474, MDA-MB-361) and nonoverexpressing breast cancer cell lines (MCF-7, MDA-MB-453, MDA-MB-468), normal human mammary epithelial cells (HMECs) and a non-breast tumorigenic cell line (HEK 293FT). […] PBP, NRID1 and PFN2 shRNAs clustered with ERBB2.
(§5) RNAi screen, transfections and constructs. The flag-RevErba (flag-NR1D1) overexpression construct was a generous gift of M. Lazar. The LSXN-neu* (ERBB2) overexpression construct was a generous gift of L. Petti. shRNA constructs were expressed from the pSHAG-MAGIC 2 (pSM2) vector and derived from a genome-wide shRNA library^31. ShRNAs targeting the firefly (Photinus pyralis) luciferase gene were used as controls. Transfection efficiency was monitored by co-transfection with a modified MSCV-Puro vector expressing green fluorescent protein (GFP). The alamarBlue (Biosource) assay was performed 96 h post-transfection, since BT474 cells have a population doubling time of ˜100 hours. […] For quantification of alamarBlue we used a BioTek HT Synergy plate reader. AlamarBlue values from the RNAi screens on other cell types were also calculated as above and subjected to hierarchical cluster analysis using Cluster 2.11 (M. Eisen Lab).

[6] = tested on: nonoverexpressing breast cancer cell lines (MCF-7, MDA-MB-453, MDA-MB-468), HMECs, HEK 293FT; assay: alamarBlue proliferation of shRNA-transfected ERBB2 non-overexpressing cell lines; settings: MCF-7, MDA-MB-453, MDA-MB-468, HMEC, shRNA transfection
Excerpt: as §1, §4, §5

Molecule | effect on cell proliferation (BT474 cells [1]) | cell death / viability (cell number of transfected cells) (BT474 cells [3]) | other results
MKI67 shRNA: shRNA, mature sequence GCTACAAACTCCTAAGGAA (shRNA) | significant effects on proliferation | – | –
O=C(Nc1ccncc1)c1cc([N+](=O)[O-])ccc1Cl [second PPARγ antagonist] | – | – | sensitivity of cells to drug treatment (cell counts) [2]: produced the same effects
FASN shRNA: shRNA, mature sequence CTGGCCCAGGCTGAAGTTT (shRNA) | moderate effect on cell proliferation | significantly decreased BT474 cell viability | –
ACLY shRNA: shRNA, mature sequence GGGAGGAAGCTGATGAATA (shRNA) | – | significantly decreased BT474 cell viability | –
MDH1 shRNA: shRNA, mature sequence CGAGCTAAAGCTCAAATTG (shRNA) | – | cell death | apoptosis (BT474 cells [4]): apoptosis
TPD52 shRNA: shRNA, mature sequence CTGTGAGATTCCTACCTTT (shRNA) | significant effects on proliferation | – | –
FADS2 shRNA: shRNA, mature sequence CCCATAGGGAGCTGATCGT (shRNA) | moderate effect on cell proliferation | – | –
ACACA shRNA: shRNA, mature sequence CACATGACCTTAAGATTAT (shRNA) | – | significantly decreased BT474 cell viability | –
CA9 shRNA: shRNA, mature sequence CTTTGAATGGGCGAGTGAT (shRNA) | significant effects on proliferation | – | –
MAP2K6 shRNA: shRNA, mature sequence CAGATGACCTGGAGCCTAT (shRNA) | most dramatic effect on cell proliferation | – | –
PFN2 shRNA: shRNA, mature sequence AGCATTACGCCAATAGAAA (shRNA) | – | – | viability of ERBB2-positive cells [5]: specifically decreased the viability of ERBB2-positive cells; effect on other cell lines or HMECs [6]: without effect on other cell lines or HMECs
ME1 shRNA: shRNA, mature sequence GGCTTTATCCTCCTTTGAA (shRNA) | – | cell death | apoptosis (BT474 cells [4]): apoptosis
